Laboratory results from article PMC10212513, “Site IQ in mitochondrial complex I generates S1QEL-sensitive superoxide/hydrogen peroxide in both the reverse and forward reactions” (Biochemical Journal, 2023).
Read-outs that look alike come from different tables or passages of the source.

What was measured:
site IQf in complex I = assay: Amplex UltraRed assay of superoxide/hydrogen peroxide production during forward electron transport (glycerol 3-phosphate plus 50 µM glutamate plus malate); type: biochemical, rat
Procedure: Cuvette- and plate-based assays of superoxide/hydrogen peroxide production during RET using 12.5 mM G3P (or during FET using 12.5 mM G3P, 50 µM glutamate plus 50 µM malate) as substrate were conducted at 37°C as described [45] using 0.2 mg of mitochondrial protein/ml in 3 ml (plastic cuvettes, Varian Cary Eclipse spectrofluorometer (Ex 560 nm/Em 590 nm)) or 0.2 mg mitochondrial protein/ml, 0.01 mg/well (Pherastar FS (BMG) fluorescence microplate reader, Ex 540 nm/Em 590 nm), in KHEB medium (120 mM KCl, 3 mM HEPES, 1 mM EGTA, 0.3% w/v bovine serum albumin, pH 7.4) containing 25 U/ml SOD1, 25 µM Amplex Ultrared, and 5 U/ml HRP, plus dimethyl sulfoxide (DMSO) or treatments as indicated.

[1] = system: isolated rat skeletal muscle mitochondria; type: biochemical
Procedure: Mitochondria were immobilised in coverglass-bottomed 96-well microplates (Greiner Sensoplate) by centrifugation for 15 min at 1000 g in KHEB medium at 4°C. The microplate was warmed in the 37°C heated environment chamber of a Nikon Eclipse Ti-PFS fully motorised wide-field fluorescence microscope equipped with a Lambda 821 LED light source with Lambda 10-3 emission filter wheel and Andor iXon Life 888 EMCCD camera, controlled by NIS Elements 5.20. TMRM (100 nM) was added to the wells, and in successive additions substrates were added without changing the TMRM concentration. TMRM was imaged using a Super Fluor 40× NA1.3 oil lens, a 586/20 nm excitation filter on a 560 nm LED, a 593 nm dichroic mirror, and a 641/75 nm emission filter capturing the centre 512 × 512 pixels area of the camera with no binning and with 1.5× optical zoom (0.17 µm/pixel resolution). Multiple (typically 25) view fields were recorded in one to three wells for 3 time points per substrate condition. In some experiments, TMRM imaging was followed by recording frames of NAD(P)H autofluorescence in the same view fields using a 340 nm LED, 414 nm dichroic mirror and 460/80 nm emission filter. The first autofluorescence frame matched the substrate condition of the last TMRM frame and then the recording of three more frames followed the application of rotenone (4 µM) or FCCP (4 µM) by 1 min delay. Recordings were analysed in Image Analyst MKII 4.2.1 (Image Analyst Software, Novato, CA) by performing image registration, background subtraction and ROI-based intensity measurement. Background was subtracted first as a blank image and then frame-by-frame using the ‘Mean of pixels below percentile of max projection (dilated mask)' method. Single-mitochondria ROIs were generated by morphological segmentation using a modification of the ‘Mitochondria : cell volume fractionator (basic)' standard pipeline. ΔψM was calculated using the Nernst equation. Because fluorescence was small in the absence of substrates, polarisation by G + M was calculated from TMRM fluorescence intensities (FTMRM) by comparison to succinate as 61 mV × log(FTMRM_G + M/FTMRM_succinate), which expresses how much less polarisation was provided by G + M than succinate, in millivolts. Polarisation by G3P was calculated by comparison to G + M as 61 mV × log(FTMRM_G3P/FTMRM_G + M), which expresses the millivolts hyperpolarisation when G3P is added in the presence of G + M. Changes in NAD(P)H autofluorescence (ΔNADH) were expressed as the observed fluorescence intensity change normalised to the population mean fluorescence before rotenone (or FCCP) addition. […] This was then converted to log2-fold changes to provide symmetrical distributions. Scatter plots were generated and analysed in Mathematica 13 (Wolfram Research).

Fa2N-4 cells [2] = assay: NAD(P)H autofluorescence two-photon imaging, single-cell analysis; type: cell-based
Procedure: Subcellular resolution micrographs of NAD(P)H autofluorescence were recorded using an upright Zeiss LSM 7MP multiphoton microscope, equipped with a Chameleon Vision II mode-locked laser set to 710 nm (1–1.5% of the 745 mW output power was used) and W Plan-Apochromat 20×/1.0 DIC M27 75 mm dipping water immersion objective lens and detection of emission between 420 and 480 nm. 1024 × 1024 pixels images (0.2 µm/pixel) were recorded at maximal scan speed and 8× frame averaging. Time courses of two frames, one before and one after the addition of rotenone (2 µM), FCCP (4 µM) or vehicle (DMSO 1 : 2000) were recorded using the Zeiss Multi Time Series macro. The cell monolayer was auto-focused at one x,y-position, and four other positions were imaged for analysis in each dish. Recordings were analysed in Image Analyst by rigid image registration, background subtraction and ROI-based intensity measurement. Unbiased single-cell ROIs were generated in using Cellpose 2.0 [48] with the ‘cyto2' neural network. Histograms were generated in Mathematica.

[3] = system: rat skeletal muscle mitochondria; assay: Respiration of isolated mitochondria on glycerol 3-phosphate (Seahorse extracellular flux analyzer); type: biochemical; settings: 1–10 µM; in the presence of ADP; n = 2–3
Procedure: Mitochondrial respiration was assayed at 37°C using an Agilent Seahorse XFe-24 as described previously, using 12.5 mM G3P as substrate.

Fa2N-4 cells [4] = assay: Subcellular analysis of NAD(P)H autofluorescence (mitochondria within cells); type: cell-based; settings: rotenone challenge
Procedure: The NAD(P)H autofluorescence multiphoton time courses described above were de-noised by Wiener filtering, cropped based on the Cellpose ROIs resulting in 256 × 256 pixels images of single cells, and surrounding structures were masked in Image Analyst MKII. Then, to compensate for the motility of mitochondria during the time courses, B-spline-based deformable image registration was performed in Elastix 5.0.1 [49]. Image registration was quality controlled subjectively plus by calculating Pearson’s cross-correlation coefficient between before- and after-rotenone frames, and cells with a value lower than 0.6 were discarded. The pixel-by-pixel ratio of after- over before-treatment frames was calculated, masked by mitochondrial profiles generated by Otsu’s threshold method (with a logical OR of before- and after-frames), and log2 of the ratios was taken for all pixels. Image histograms were saved to Excel and analysed in Mathematica using a maximum log-likelihood method for fitting the binned log2-fold intensity values with normal distribution(s). Mock treatments were fitted well with a single, symmetric distribution. We attribute this change of pixel intensities between the consecutive frames of the time course to motility artefacts and noise. The distribution of log2-fold pixel intensity changes for rotenone-treated cells was wider, and therefore we coarsely modelled it as sum of two normal distributions (rotenone-responsive and unresponsive mitochondria, with σ matching that of the mock-treatment modelling motility and noise effects). […] This analysis was repeated for individual single cells (total 185 in three experiments).

[5] = plate-reader titrations, IQf versus IQr, 2 µM atpenin A5, 10 µM S3QEL3
[6] = rotenone 4 µM challenge, 50 µM G + M plus 12.5 mM G3P

Q: `N#CC(C#N)=NNc1ccc(OC(F)(F)F)cc1` [FCCP] was tested. Which “Sensitivity of superoxide/hydrogen peroxide production from site IQf compared with site IQr” value (site IQf in complex I) did it give?
A: equally sensitive

Q: What about the “Mitochondria responding with significant oxidation of NADH” value [1] of the same compound?
A: 85 ± 2%

Q: And the “Cells responding with a decrease in NAD(P)H autofluorescence” value (Fa2N-4 cells [2]; FCCP 4 µM)?
A: All cells

Q: How did the “Effect on respiration on 12.5 mM G3P” value [3] turn out when `COc1[nH]c(=O)c(C(=O)[C@@H](C)C[C@H](C)[C@@H](Cl)CCl)c(O)c1OC` [atpenin A5] was run?
A: no significant effect

Q: How did the “Sensitivity of superoxide/hydrogen peroxide production from site IQf compared with site IQr” value (site IQf in complex I; [5]) turn out when `CO[C@@H]1C[C@@H](C[C@H]2CC[C@H](C)[C@H]([C@@H](C)C(=O)O)O2)O[C@]2(O[C@](C)([C@H]3CC[C@@](C)([C@@H]4O[C@@H]([C@H]5O[C@@](O)(CO)[C@H](C)C[C@@H]5C)C[C@@H]4C)O3)C[C@H]2C)[C@@H]1C` [nigericin] was run?
A: equally sensitive

Q: Which results are given for `C/C=C(\C)[C@H](O)[C@H](C)/C=C(C)/C=C/C/C(C)=C/Cc1nc(OC)c(OC)c(O)c1C` [piericidin A]?
A: Superoxide/hydrogen peroxide production by site IQf at highest concentration (site IQf in complex I; 10 µM, plate-reader): IQf activity reappeared; Sensitivity of superoxide/hydrogen peroxide production from site IQf compared with site IQr (site IQf in complex I; [5]): equally sensitive

Q: For `C=C(C)[C@H]1Cc2c(ccc3c2O[C@@H]2COc4cc(OC)c(OC)cc4[C@@H]2C3=O)O1` [rotenone], which “Sensitivity of superoxide/hydrogen peroxide production from site IQf compared with site IQr” value (site IQf in complex I; [5]) is on record?
A: equally sensitive

Q: And the “Cellular mitochondria oxidising on challenge (excess pixel count)” value (Fa2N-4 cells [4]; n = 3)?
A: 0.5 ± 0.1%

Q: And the “Mitochondria in cells estimated to respond poorly or not at all” value (Fa2N-4 cells [4]; n = 3 experiments, 185 cells)?
A: 26 ± 3%

Q: And the “Mitochondria in cells that responded with increased fluorescence” value (Fa2N-4 cells [4]; n = 3 experiments, 185 cells)?
A: 74 ± 3%

Q: And the “Mean increase in NAD(P)H fluorescence intensity of responding mitochondria” value (Fa2N-4 cells [4]; responder population)?
A: 50 ± 10%

Q: What about the “Mitochondria responding by significantly increasing the reduction of their NADH/NAD+ pool” value [1, 6] of the same compound?
A: 65%

Q: And the “Mitochondria that did not change NAD(P)H fluorescence significantly” value [1, 6]?
A: 30 ± 9%

Q: And the “Mitochondria responding by significant oxidation of NADH to NAD+” value ([1]; rotenone 4 µM challenge, 50 µM G + M plus 12.5 mM G3P, n = 4)?
A: 4.2 ± 1.1%

Q: What about the “Cells responding with an increase in NAD(P)H autofluorescence” value (Fa2N-4 cells [2]; rotenone challenge (4 µM in legend, 2 µM in methods), n = 4) of the same compound?
A: 97 ± 4%
